This assay concerns the target PDE4D7 (Homo sapiens (Human), UniProt Q08499). The conditions noted are these: read-out: PDE4D7 IC50; PDE4D7 without asterisk.

Structures can show the parent of a compound that is named as a salt. Bounds are passed on as bounds.

Sequence of PDE4D7 (Q08499 other isoform, or with tags, fused parts or gaps): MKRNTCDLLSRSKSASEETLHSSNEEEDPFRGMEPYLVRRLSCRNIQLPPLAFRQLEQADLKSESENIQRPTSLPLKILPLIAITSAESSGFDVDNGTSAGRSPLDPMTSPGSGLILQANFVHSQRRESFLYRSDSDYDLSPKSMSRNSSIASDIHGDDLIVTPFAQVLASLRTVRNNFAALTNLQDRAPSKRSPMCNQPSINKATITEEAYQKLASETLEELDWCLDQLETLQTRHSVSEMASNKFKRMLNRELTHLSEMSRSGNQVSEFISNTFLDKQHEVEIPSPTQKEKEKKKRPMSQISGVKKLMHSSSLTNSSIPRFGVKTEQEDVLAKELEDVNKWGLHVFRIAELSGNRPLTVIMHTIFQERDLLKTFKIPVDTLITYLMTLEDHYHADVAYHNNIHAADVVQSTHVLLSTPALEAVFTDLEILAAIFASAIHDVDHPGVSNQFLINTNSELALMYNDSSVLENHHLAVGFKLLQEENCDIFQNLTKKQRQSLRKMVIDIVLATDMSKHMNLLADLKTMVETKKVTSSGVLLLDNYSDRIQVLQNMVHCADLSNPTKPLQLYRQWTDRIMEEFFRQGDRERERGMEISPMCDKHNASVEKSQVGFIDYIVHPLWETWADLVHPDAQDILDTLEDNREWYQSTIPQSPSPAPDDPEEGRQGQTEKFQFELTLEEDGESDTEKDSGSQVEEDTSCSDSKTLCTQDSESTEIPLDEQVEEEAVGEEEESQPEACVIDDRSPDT

One may read the IC50 as the concentration that gives 50% inhibition. `O=C(O)CCCc1ccc(Nc2cc(-c3cccc(Cl)c3)nc3c2CCC3)cc1` [Example 8, 4-[4-[[2-(3-Chlorophenyl)-6,7-dihydro-5H-cyclopenta[b]pyridin-4-yl]amino]phenyl]butanoic acid]: the IC50 was above 1000 nM.
Next, `NC(=O)Cc1ccc(Nc2nc(-c3cccc(Cl)c3)nc3c2CCCC3)cc1` [Example 234, 2-(4-((2-(3-Chlorophenyl)-5,6,7,8-tetrahydroquinazolin-4-yl)amino)phenyl)acetamide]: below 1000 nM.
Next, `O=C(O)Cc1ccc(Nc2nc(-c3cccc(Cl)c3)nc3c2CCC3)cc1` [Example 10, 2-[4-[[2-(3-Chlorophenyl)-6,7-dihydro-5H-cyclopenta[d]pyrimidin-4-yl]amino]phenyl]acetic acid]: above 1000 nM; `CC(C)c1nc(Nc2ccc(CC(=O)O)cc2)nc(-c2ccc(Cl)s2)n1` [Example 25, 2-(4-((4-(5-chlorothiophen-2-yl)-6-isopropyl-1,3,5-triazin-2-yl)amino)phenyl)acetic acid]: above 1000 nM; `Cc1cc(Nc2cc(-c3cccc(Cl)c3)nc3c2CCC3)ccc1CC#N` [Example 109, 2-(4-((2-(3-Chlorophenyl)-6,7-dihydro-5H-cyclopenta[b]pyridin-4-yl)amino)-2-methylphenyl)acetonitrile hydrochloride]: above 1000 nM.
Take `OCCc1ccc(Nc2cc(-c3cc(Cl)ccc3Cl)nc3c2CCC3)cc1` [Example 156, 2-(4-((2-(2,5-Dichlorophenyl)-6,7-dihydro-5H-cyclopenta[b]pyridin-4-yl)amino)phenyl)ethanol hydrochloride]: the IC50 is above 1000 nM.
As to `CCCNC(=O)Cc1ccc(Nc2nc(-c3cccc(Cl)c3)nc3c2S(=O)(=O)CCC3)cc1` [Example 276, 2-(4-((2-(3-Chlorophenyl)-5,5-dioxido-7,8-dihydro-6H-thiopyrano[3,2-d]pyrimidin-4-yl)amino)phenyl)-N-propylacetamide], the IC50 is above 1000 nM.
The value for `NC(C(=O)O)c1ccc(Nc2nc(-c3ccc(Cl)s3)nc3c2CCC3)cc1` (stereo not drawn) [Example 12, 2-Amino-2-[4-[[2-(5-chloro-2-thienyl)-6,7-dihydro-5H-cyclopenta[d]pyrimidin-4-yl]amino]phenyl]acetic acid hydrochloride] was above 1000 nM.
Next, `OCCc1ccc(Cc2cc(C(F)(F)F)nc(OC3CCCC3)n2)cc1` [Example 202, 2-(4-((2-(Cyclopentyloxy)-6-(trifluoromethyl)pyrimidin-4-yl)methyl)phenyl)ethanol]: above 1000 nM; `CCc1cc(Cc2ccc(CC(=O)O)cc2)nc(C2CCCC2)n1` [Example 224, 2-(4-((2-Cyclopentyl-6-ethylpyrimidin-4-yl)methyl)phenyl)acetic acid]: above 1000 nM.
Regarding `NC(=O)Cc1ccc(Cc2cc(C(F)(F)F)nc(C3CCCC3)n2)cc1` [Example 230, 2-(4-((2-Cyclopentyl-6-(trifluoromethyl)pyrimidin-4-yl)methyl)phenyl)acetamide], the IC50 is above 1000 nM.
As for `CCc1cc(Nc2ccc(C(C)(C)C(N)=O)cc2)nc(-c2cccc(Cl)c2)n1` [Example 187, 2-(4-((2-(3-Chlorophenyl)-6-ethylpyrimidin-4-yl)amino)phenyl)-2-methylpropanamide], the IC50 was above 1000 nM.
The value for `NC(=O)Cc1ccc(Nc2cc(C(F)(F)F)nc(C3CCCC3)n2)cc1` [Example 228, 2-(4-((2-Cyclopentyl-6-(trifluoromethyl)pyrimidin-4-yl)amino)phenyl)acetamide] was below 1000 nM.
Next, `NC(=O)C(CO)Cc1ccc(Nc2nc(-c3cccc(Cl)c3)nc3c2CCC3)cc1` (stereo not drawn) [Example 168, 2-(4-((2-(3-Chlorophenyl)-6,7-dihydro-5H-cyclopenta[d]pyrimidin-4-yl)amino)benzyl)-3-hydroxypropanamide]: above 1000 nM; `NC(=O)Cc1ccc(Nc2nc(C3CCCC3)nc3c2CCC3)cc1` [Example 216, 2-(4-((2-Cyclopentyl-6,7-dihydro-5H-cyclopenta[d]pyrimidin-4-yl)amino)phenyl)acetamide]: below 1000 nM.

For the origin of these results see patent US11401286B2 (Tetra Discovery Partners, LLC, priority 2012, dated 2022).
